From patent publication US20220155322A1, “USE OF NATRIURETIC PEPTIDES TO ASSESS AND TREAT ACUTE KIDNEY INJURY” (Mayo Foundation for Medical Education and Research, priority 2019, published 2022)
Positions of bridges follow the written chain, without caps; N, C: chain ends. Residues, ends and D or L forms follow the SMILES beside them.

Legend:
[1] = test system: human primary aortic vascular smooth muscle cells (HASMC); test: Intracellular calcium under ANGII stimulation (Fura-2); type: cell-based
Description: Measurements of Intracellular Calcium in Vascular Smooth Muscle Cells: HASMC (ScienCell Research Laboratories; Carlsbad, Calif.) were cultured and maintained as instructed by the manufacturer. Cells at passage 4 or 5 were used for experiments. Calcium imaging was performed as described elsewhere (Chai et al., Cardiovasc Res, 100:151-159, 2013). Briefly, cells were seeded on a 25 mm round cover glass (Fisher Scientific; Pittsburgh, Pa.) at a density of 5×10^4 cells per slide. The slides had been pretreated with 0.5 N NaOH for 8 hours, rinsed with water, and sterilized before use. After overnight culturing, the slides with cells were assembled in a MS-02 Chamber (ALA Scientific Instrument; Farmingdale, N.Y.) and loaded with 3 μM fura-2 AM (Invitrogen; Carlsbad, Calif.) for 30 minutes in a 37° C. incubator. The chamber was then placed on the stage of an inverted Olympus IX71 microscope (Olympus America Inc.; Waltham, Mass.). The cells were maintained in 1 mL HASMC medium and treated with or without ANP, BNP, or CRRL269 at concentration of 10^−9 or 10^−7 M for 5 minutes before perfused with 5 mL medium containing ANGII (10^−8 or 10^−7 M). Intracellular Ca2^+ fluorescence signals were measured as a ratio of fluorescence intensities at 510 nm from excitations of 340/380 nm, using a Hamamatsu ORCA-R2 CCD camera with a Sutter LB-LS/17 light source. Baseline fluorescence was recorded after 5 minutes of treatment, and fluorescence images were acquired continuously during the ANGII perfusion. Background fluorescence was subtracted and the calcium signal (F) was normalized to baseline fluorescence (FO) and expressed as a ratio (F/FO) using MetaFluor software (Olympus America Inc.).

[2] = test system: apoptosis pathway genes in HRPTC; test: Apoptosis pathway PCR array in H/R HRPTC; type: cell-based, human
Description: (§1) Apoptosis Pathway PCR Array and Caspase7 Real Time PCR: Two groups of HRPTC (vehicle and 10^−6 M CRRL269) that underwent oil induced H/R, and a negative control (Neg Ctrl) group with no H/R stress, were cultured in 6-well plates as described above, and total RNA was collected using the Trizol method (Thermo Fisher Scientific; Waltham, Mass.). RNA was reverse transcribed for cDNA for PCR RT2 array experiments. Apoptosis pathway PCR array (Qiagen; Germantown, Md.) was conducted using the SYBR green (Bio-Rad Laboratories; Hercules, Calif.) method in a Lightcycler 480 (Roche Diagonostics; Indianapolis, Ind.). Raw data were analyzed with the online Qiagen RT2 PCR analysis program. […] A Caspase7 RT-PCR primer (PPH00110C-200, Qiagen) was obtained, and RT-PCR reactions were performed using the SYBR green method in a Lightcycler 480. The B2M gene (primer PPH01094E, Qiagen) was used for normalization.

[3] = test system: ischemic AKI model in normal mongrel canines; type: in vivo, canine; settings: after ischemia, 16.3 pmol/kg/min
Description: Ischemic Acute Kidney Injury in Canines: An ischemic AKI model in normal mongrel canines (male, 25-30 kg, n=5 per group) was created with high dose intravenous indomethacin infusion (10 mg/kg with NaHCO3[5 mg/kg] dissolved in 50 ml distilled water) followed by suprarenal ACC (Sandok et al., J Am Soc Nephrol, 196-202, 1992). Briefly, canines were anesthetized with intravenous pentobarbital (15-30 mg/kg) and fentanyl (4-12 μg/kg), intubated, and mechanically ventilated on air with supplemental oxygen, 3 L/minute, 12 cycles/minute (Harvard Apparatus; […], Mass.). The femoral and carotid arteries were accessed for mean arterial pressure (MAP) monitoring and blood sampling. The femoral vein was cannulated for continuous inulin infusion and saline/indomethacin/drug infusions. The left renal artery was attached with a probe for renal blood flow (RBF) measurement and a catheter was placed in the left ureter for passive urine collection. A flow-directed balloon-tipped thermodilution catheter was advanced to the pulmonary artery through the external jugular vein for measurement of cardiac filling pressures and cardiac output (CO). After a 60 minute equilibration, baseline (BL) characteristics were established. […] GFR values were calculated based on inulin clearance. Urinary sodium was measured with pHOx Ultra (Nova Biomedical; Waltham, Mass.).

Caspase7 gene = test: Caspase7 real time PCR in H/R HRPTC; type: cell-based, human; settings: H/R with 10^−6 M CRRL269, H/R alone 1.89 fold, normalized to B2M
Description: as §1

[4] = test system: ischemic AKI model in normal mongrel canines; test: Ischemic AKI in canines: hormonal and renal function; type: in vivo, canine
[5] = test system: ischemic AKI model in normal mongrel canines; test: CNP levels (RIA) and renal NPPC mRNA (RT-PCR) in canine AKI; type: in vivo
[6] = 16.3 pmol/kg/min infusion for 2 hours after ACC, vs vehicle
[7] = 16.3 pmol/kg/min, compared to vehicle
[8] = postischemia phases, 16.3 pmol/kg/min, vs vehicle

## CC[C@H](C)[C@@H]1NC(=O)[C@H](CCCNC(=N)N)NC(=O)[C@H](CC(=O)O)NC(=O)[C@H](CCSC)NC(=O)[C@H](CCCCN)NC(=O)[C@H](CCCNC(=N)N)NC(=O)CNC(=O)[C@H](Cc2ccccc2)NC(=O)[C@@H](NC(=O)[C@H](CO)NC(=O)[C@H](CO)NC(=O)[C@H](CCCNC(=N)N)NC(=O)[C@H](CCCNC(=N)N)NC(=O)[C@H](CC(C)C)NC(=O)[C@H](CO)NC(=O)[C@H](CCCNC(=N)N)NC(=O)[C@@H]2CCCN2C(=O)[C@H](C)NC(=O)[C@@H](N)[C@@H](C)O)CSSC[C@@H](C(=O)N[C@@H](CC(N)=O)C(=O)N[C@@H](CO)C(=O)N[C@@H](Cc2ccccc2)C(=O)N[C@@H](CCCNC(=N)N)C(=O)N[C@@H](Cc2ccc(O)cc2)C(=O)O)NC(=O)CNC(=O)[C@H](CC(C)C)NC(=O)CNC(=O)[C@H](CO)NC(=O)[C@H](CO)NC(=O)[C@H](CO)NC(=O)[C@H](CO)NC1=O [CRRL269] (H-TAPRSLRRSSCFGRKMDRISSSSGLGCNSFRY-OH; disulfide 11-27)
[1]; HASMC, pretreatment at 10^−9 or 10^−7 M, ANGII stimulation
  Ca2^+ suppression relative to ANP and BNP: less Ca2^+ suppression than ANP and BNP
[1]; pretreatment at 10^−9 or 10^−7 M for 5 minutes, ANGII 10^−8 or 10^−7 M
  Ca2^+ enhancement by ANGII in HASMC: suppressed
[2]; 10^−6 M CRRL269
  Caspase7 gene down-regulation in PCR array: at least two-fold
[2]; 10^−6 M CRRL269, 84-gene array
  number of apoptosis pathway genes down-regulated at least 2 fold: 8 out of 84
[3]
  pulmonary capillary wedge pressure (PCWP): reduced
  right atrial pressure (RAP): reduced
Caspase7 gene
  Caspase7 gene expression level (RT-PCR): 1.25 fold
[4]; [6]
  plasma cGMP levels: increased
  urinary cGMP levels: increased
[4]; 16.3 pmol/kg/min infusion for 2 hours, ex vivo cortex and medulla
  renal parenchyma cGMP levels: increased
[4]; [7]
  urinary sodium excretion (UNaV), natriuresis: significantly induced
  urine output (UV), diuresis: significantly induced
[4]; post-ischemia CL1 to CL4, 16.3 pmol/kg/min, vs vehicle
  plasma (circulating) ANGII levels: significantly reduced
[4]; [8]
  glomerular filtration rate (GFR): maintained
  renal blood flow (RBF): maintained
[5]; AKI canine renal cortex, normalized to GAPDH, vs vehicle
  cortical NPPC gene expression levels (RT-PCR): elevated
[5]; AKI canines, 16.3 pmol/kg/min infusion, compared to vehicle
  urinary CNP levels: increased
